These results are taken from patent US7132286B2, “Method for neural stem cell differentiation using valproate” (Psychiatric Genomics, Inc., priority 2001, dated 2006).

Format in all cases: cell-based
The test system of one assay is rat cortical stem cells. Kind of assay: Neuronal differentiation of rat cortical stem cells (β-tubulin III immunofluorescence, cell counting). The source says: Isolation of cortical and striatal stem cells. Timed pregnant Sprague Dawley rats were obtained from Taconic at embryonic age E14–E15 were sacrificed by inhalation of excess carbon dioxide. The abdomen of the rat was cleaned with 70% ethanol and the uterus was removed quickly and aseptically on the bench top. The uterus was placed in ice cold HBSS (GIBCO Cat. #20012-027) in a 10 cm petridish. After rinsing the uterus in PBS, embryos were removed from the uterus, rinsed in HBSS and collected in cold HBSS (buffered with HEPES and sodium bicarbonate) in a 10 cm petridish and placed on ice.
Plating, expansion and passaging of cortical and striatal stem cells. A generous amount of the triturated cell suspension was left in the original 15 ml tube to avoid fibroblast contamination in cultures. About 4–5 ml of the 6 ml of cells suspension was used for plating. Cells were plated at a concentration of 1.3×10^3 cells to 3.0×10^3 per cm^2 in 100 mm dish. This culture is designated P0 (passage 0).
Following plating cells were expanded for about 3–4 days (Passage 1, P1). Cells were treated daily with 10 ng/ml bFGF. The cultures were never permitted to reach more than 70% confluency. Cultures were then passaged as follows: 10 ml of HBSS without Ca^2+ and Mg^2+ was added to each 100 mm dish and the cells incubated at 37° C. for 5–15 minutes, or until sufficient numbers of the stem cells were rounded up. It is not expected that all cells in the culture will round up as there are several cell types in the culture at P0. The pH of the HBSS should be neutral at all times during this incubation. Cells were then removed from the dish by pipetting with a 5 ml pipette, and collected in a 15 or 50 ml conical tube, and centrifuged at 1000 g for 5 minutes. Cells were gently re-suspended in medium, counted, and plated at a density of 1×10^6 cells in 10 cm dishes and expanded for about 2 days in bFGF (Passage 1, P1). At that time the cells were passaged as described and plated onto pre-coated poly-L-ornithine/fibronectin vessels at concentrations indicated below for each experiment. Cells were treated with bFGF for 2 additional days. Before each treatment the bFGF was removed from the cells by washing twice with DMEM/F 12 to induce cell differentiation. For neurite outgrowth experiments, cells were seeded at 5×10^3 cells/well in 24-well plates and treated immediately.
(§1) Drug treatment. For immunofluorescence and Western analysis, cells were treated daily with either 0.5 mM of valproate (Sigma), 10 ng/ml of BDNF (R & D Systems), 20 ng/ml of NT-3 (R & D Systems), 1 nM 9cis retinoic acid (Sigma) or a dilution of NCM for 6 or 7 days. In some experiments valproate was also added with NCM and/or 9cis RA for 7 days. For human stem cell experiments, valproate (0.5 mM) or BDNF (25 ng/ml) was added for 9 days. For neurite outgrowth experiments, cells were treated for 1 day with 0.5 mM valproate or 50 ng/ml of BDNF. Where applicable, medium was changed every 2 days. After about 5–10 days, preferably on day 6 (i.e., after 6 days of drug exposure) the cells were fixed with a 4% solution of para-formaldehyde (PFA) in PBS, prepared as follows:
Immunofluorescent staining and visualization. Cells were plated at 20,000 cells/well in poly-L-ornithine/fibronectin (1 mg/ml) coated 24-well plates. After fixation, the PBS was aspirated from the fixed cells and the cells were treated with blocking solution (10% normal goat serum-NGS-Jackson Labs), 0.3% Triton-Sigma, in PBS) to saturate non-specific sites and permeabilize the cells. […]

The next assay has as its system β tubulin-III. The assay is described as follows: Western blot of β tubulin-III expression in rat cortical stem cells. Particulars: valproate 1 day.
Assay [1] relates to human striatal stem cells (line 161). Kind of assay: Neuronal differentiation of human striatal stem cells (β tubulin III neurons, total cells). The note with it: 9 days. The method, then:
Expansion and differentiation of striatal human stem cells. Human stem cells were provided from ReNeuron Inc. (U.K.). Striatum was obtained after 6 to 12 weeks of gestation from routine legal abortion. Cell line was provided by ReNeuron at passage 16. The stem cells were expanded in untreated 25 cm^2 tissue culture flasks (Nunc, USA) in the presence of 20 ng/ml and 10 ng/ml of human recombinant EGF and bFGF respectively, in NSA basal serum-free medium (Euroclone, U.K). Fresh medium and growth factors were added every 3 days. In these conditions stem cells were growing as floating neurospheres. After 4 weeks, the neurospheres were harvested, treated with a mild papain treatment in HBSS and dissociated into a single cell suspension. Cells were counted and viability was estimated by trypan blue exclusion method. Cells were differentiated by growth factors removal. The cells were plated in NSA medium at 20,000 cells/well on LabTek permanox culture slides of 8 wells precoated with laminin (1 μg/ml). Cells were treated with valproate and BDNF for 9 days at 37° C. and a saturated humidified atmosphere of 5% CO2, 1% O2 and 94% N2. Fresh medium and re-treatment with factors was performed every 3 days.
as §1
Immunofluorescent staining and visualization. Cells were plated at 20,000 cells/well in poly-L-ornithine/fibronectin (1 mg/ml) coated 24-well plates. […]
For counting, three to five different fields of interest at magnification 10× or 20× were chosen randomly. For immunofluorescence, 3 different black and white pictures were taken by field of interest with a digital camera CoolSnap Fx (Princeton) corresponding to the exposure of Cy2, Cy3 and Hoechst fluorescence. […] The percentage of neurons, astrocytes and GABAergic cells was determined by comparing the number of cells immunopositive for β-tubulin III, GFAP and GABA to the number of bis-benzamide stained nuclei (i.e., total cell number). […]

Setting [2] is: rat cortical stem cells, 6 days, vs control.

Structures are written as SMILES. Entries after “also recorded” stand apart in the source; their conditions may differ.

Consider `CCCC(CCC)C(=O)O` [valproate, 2-Propylpentanoic acid], for which the “increase of percentage of β-tubulin III expressing neurons over the control” value with rat cortical stem cells (rat cortical neural stem cells, 6 days) was ~5 fold. Besides, in the assay with rat cortical stem cells (rat cortical stem cells, 6 days valproate), the morphology of neurons entry is “growing in clusters and had longer process than cells in control”. In the assay on rat cortical stem cells (setting [2]), the “effect on neuronal differentiation (percentage of β-tubulin-III expressing cells) in words” value is recorded as “increases neuronal differentiation more efficiently than neurotrophins or growth factors”; the “effect on number of neurons per field” value was “increases the number of neurons”; the “effect on total cell number (proliferation), bis-benzimide nuclei” value was “without valproate affecting the total cell number; also recorded: total number of cells is comparable to control; also recorded: does not inhibit neural stem cell proliferation”. Moreover, the “percentage of β-tubulin III expressing neurons (mean+SD)” value with rat cortical stem cells (rat cortical stem cells, daily treatment 6 days, 0.5 mM valproate, 10 ng/ml BDNF, 20 ng/ml NT-3, untreated control 6.2+1.8%) is 25.8+0.8%. In addition, the “neuronal differentiation compared to control, in words” value with rat cortical stem cells (rat cortical stem cells, daily treatment 7 days, 0.5 mM valproate, 0.5× NCM, 1 nM 9-cis RA) is listed as “increased the neuronal differentiation”. In the assay on rat cortical stem cells (valproate added with 9-cis RA and NCM, 7 days, rat cortical stem cells), the “maximum percentage of neurons” value worked out at 60%. The “β-tubulin III expression by Western blot” value in the assay on β tubulin-III was “increase of β-tubulin III expression; also recorded: increases β tubulin-III expression”. In addition, in assay [1], the “effect on cell proliferation (cell density)” value is “without inhibiting cell proliferation”; the “effect on number of β tubulin III positive neurons / neuronal differentiation” value was “increased the number of β tubulin III positive neurons compared to control and BDNF-treated cultures; also recorded: increases neuronal differentiation in human stem cell culture”. In assay [1] (0.5 mM valproate, BDNF 25 ng/ml, untreated control 40%), this compound showed a neuronal differentiation of 70%.
